From ChEMBL document CHEMBL1770059, “Identification of chemicals to inhibit the kinase activity of leucine-rich repeat kinase 2 (LRRK2), a Parkinson's disease-associated protein” (Bioorg Med Chem Lett, 2011)
pIC50: −log10 of the molar value. Active and inactive are the calls of the source. No cut-off for these calls is given here.

Columns and labels:
[1] = biological target: RAF proto-oncogene serine/threonine-protein kinase (Homo sapiens) (UniProt P04049); experiment: Inhibition of c-Raf assessed as residual activity of enzyme at 25 uM
Sequence of RAF proto-oncogene serine/threonine-protein kinase (Homo sapiens) (P04049 whole entry): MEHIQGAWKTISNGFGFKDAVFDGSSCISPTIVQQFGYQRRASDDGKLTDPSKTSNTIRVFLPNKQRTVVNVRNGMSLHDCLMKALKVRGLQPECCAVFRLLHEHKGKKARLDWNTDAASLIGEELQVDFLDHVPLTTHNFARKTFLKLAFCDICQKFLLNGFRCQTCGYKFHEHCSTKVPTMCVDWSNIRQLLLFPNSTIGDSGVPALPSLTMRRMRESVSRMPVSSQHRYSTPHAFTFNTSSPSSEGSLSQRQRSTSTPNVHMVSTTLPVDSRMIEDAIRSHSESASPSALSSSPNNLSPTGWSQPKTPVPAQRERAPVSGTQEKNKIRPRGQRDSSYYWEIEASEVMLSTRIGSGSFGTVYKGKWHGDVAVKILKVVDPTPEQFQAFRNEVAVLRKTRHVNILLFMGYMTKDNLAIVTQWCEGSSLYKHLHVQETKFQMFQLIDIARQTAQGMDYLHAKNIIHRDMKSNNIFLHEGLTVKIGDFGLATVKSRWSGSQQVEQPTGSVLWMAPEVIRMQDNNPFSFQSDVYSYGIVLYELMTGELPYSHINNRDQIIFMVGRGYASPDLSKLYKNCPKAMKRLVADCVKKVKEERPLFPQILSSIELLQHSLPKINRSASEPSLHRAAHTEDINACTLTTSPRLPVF

[2] = biological target: Ribosomal protein S6 kinase beta-1 (Homo sapiens) (UniProt P23443); experiment: Inhibition of p70S6K assessed as residual activity of enzyme at 10 uM
Sequence of Ribosomal protein S6 kinase beta-1 (Homo sapiens) (P23443 whole entry, looked up, canonical isoform): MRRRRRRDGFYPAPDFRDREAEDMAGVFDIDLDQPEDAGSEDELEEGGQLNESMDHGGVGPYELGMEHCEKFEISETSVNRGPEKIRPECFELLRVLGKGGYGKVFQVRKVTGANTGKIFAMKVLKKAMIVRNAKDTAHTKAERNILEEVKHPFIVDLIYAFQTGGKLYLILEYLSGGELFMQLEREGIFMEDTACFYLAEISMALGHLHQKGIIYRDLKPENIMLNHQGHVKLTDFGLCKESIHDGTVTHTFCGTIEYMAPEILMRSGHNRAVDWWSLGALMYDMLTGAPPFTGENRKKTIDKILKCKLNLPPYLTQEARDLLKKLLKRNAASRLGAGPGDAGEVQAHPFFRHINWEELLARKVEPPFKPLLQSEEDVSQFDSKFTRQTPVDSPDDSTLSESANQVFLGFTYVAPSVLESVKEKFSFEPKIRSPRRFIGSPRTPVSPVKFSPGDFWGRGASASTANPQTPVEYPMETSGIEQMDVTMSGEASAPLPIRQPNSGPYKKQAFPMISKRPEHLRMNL

[3] = biological target: Casein kinase I isoform alpha (Homo sapiens) (UniProt P48729); experiment: Inhibition of CK1 assessed as residual activity of enzyme at 25 uM
Sequence of Casein kinase I isoform alpha (Homo sapiens) (P48729 2-337 limits assumed): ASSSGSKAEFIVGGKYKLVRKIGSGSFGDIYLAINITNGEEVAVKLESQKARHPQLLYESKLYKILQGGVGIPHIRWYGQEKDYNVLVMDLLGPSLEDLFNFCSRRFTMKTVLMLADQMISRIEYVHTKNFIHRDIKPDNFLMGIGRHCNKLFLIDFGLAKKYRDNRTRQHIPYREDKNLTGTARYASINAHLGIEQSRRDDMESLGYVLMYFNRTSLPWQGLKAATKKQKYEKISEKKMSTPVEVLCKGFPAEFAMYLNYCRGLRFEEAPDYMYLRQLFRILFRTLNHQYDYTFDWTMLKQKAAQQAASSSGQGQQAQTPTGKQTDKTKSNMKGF

[4] = tested on: Leucine-rich repeat serine/threonine-protein kinase 2 (Homo sapiens), Q5S007 [G2019S]; experiment: Inhibition of purified N-terminal GST-tagged LRRK2 G2019S mutant assessed as residual activity of enzyme at 25 uM
Sequence of Leucine-rich repeat serine/threonine-protein kinase 2 (Homo sapiens), Q5S007 [G2019S] (Q5S007 whole entry G2019S): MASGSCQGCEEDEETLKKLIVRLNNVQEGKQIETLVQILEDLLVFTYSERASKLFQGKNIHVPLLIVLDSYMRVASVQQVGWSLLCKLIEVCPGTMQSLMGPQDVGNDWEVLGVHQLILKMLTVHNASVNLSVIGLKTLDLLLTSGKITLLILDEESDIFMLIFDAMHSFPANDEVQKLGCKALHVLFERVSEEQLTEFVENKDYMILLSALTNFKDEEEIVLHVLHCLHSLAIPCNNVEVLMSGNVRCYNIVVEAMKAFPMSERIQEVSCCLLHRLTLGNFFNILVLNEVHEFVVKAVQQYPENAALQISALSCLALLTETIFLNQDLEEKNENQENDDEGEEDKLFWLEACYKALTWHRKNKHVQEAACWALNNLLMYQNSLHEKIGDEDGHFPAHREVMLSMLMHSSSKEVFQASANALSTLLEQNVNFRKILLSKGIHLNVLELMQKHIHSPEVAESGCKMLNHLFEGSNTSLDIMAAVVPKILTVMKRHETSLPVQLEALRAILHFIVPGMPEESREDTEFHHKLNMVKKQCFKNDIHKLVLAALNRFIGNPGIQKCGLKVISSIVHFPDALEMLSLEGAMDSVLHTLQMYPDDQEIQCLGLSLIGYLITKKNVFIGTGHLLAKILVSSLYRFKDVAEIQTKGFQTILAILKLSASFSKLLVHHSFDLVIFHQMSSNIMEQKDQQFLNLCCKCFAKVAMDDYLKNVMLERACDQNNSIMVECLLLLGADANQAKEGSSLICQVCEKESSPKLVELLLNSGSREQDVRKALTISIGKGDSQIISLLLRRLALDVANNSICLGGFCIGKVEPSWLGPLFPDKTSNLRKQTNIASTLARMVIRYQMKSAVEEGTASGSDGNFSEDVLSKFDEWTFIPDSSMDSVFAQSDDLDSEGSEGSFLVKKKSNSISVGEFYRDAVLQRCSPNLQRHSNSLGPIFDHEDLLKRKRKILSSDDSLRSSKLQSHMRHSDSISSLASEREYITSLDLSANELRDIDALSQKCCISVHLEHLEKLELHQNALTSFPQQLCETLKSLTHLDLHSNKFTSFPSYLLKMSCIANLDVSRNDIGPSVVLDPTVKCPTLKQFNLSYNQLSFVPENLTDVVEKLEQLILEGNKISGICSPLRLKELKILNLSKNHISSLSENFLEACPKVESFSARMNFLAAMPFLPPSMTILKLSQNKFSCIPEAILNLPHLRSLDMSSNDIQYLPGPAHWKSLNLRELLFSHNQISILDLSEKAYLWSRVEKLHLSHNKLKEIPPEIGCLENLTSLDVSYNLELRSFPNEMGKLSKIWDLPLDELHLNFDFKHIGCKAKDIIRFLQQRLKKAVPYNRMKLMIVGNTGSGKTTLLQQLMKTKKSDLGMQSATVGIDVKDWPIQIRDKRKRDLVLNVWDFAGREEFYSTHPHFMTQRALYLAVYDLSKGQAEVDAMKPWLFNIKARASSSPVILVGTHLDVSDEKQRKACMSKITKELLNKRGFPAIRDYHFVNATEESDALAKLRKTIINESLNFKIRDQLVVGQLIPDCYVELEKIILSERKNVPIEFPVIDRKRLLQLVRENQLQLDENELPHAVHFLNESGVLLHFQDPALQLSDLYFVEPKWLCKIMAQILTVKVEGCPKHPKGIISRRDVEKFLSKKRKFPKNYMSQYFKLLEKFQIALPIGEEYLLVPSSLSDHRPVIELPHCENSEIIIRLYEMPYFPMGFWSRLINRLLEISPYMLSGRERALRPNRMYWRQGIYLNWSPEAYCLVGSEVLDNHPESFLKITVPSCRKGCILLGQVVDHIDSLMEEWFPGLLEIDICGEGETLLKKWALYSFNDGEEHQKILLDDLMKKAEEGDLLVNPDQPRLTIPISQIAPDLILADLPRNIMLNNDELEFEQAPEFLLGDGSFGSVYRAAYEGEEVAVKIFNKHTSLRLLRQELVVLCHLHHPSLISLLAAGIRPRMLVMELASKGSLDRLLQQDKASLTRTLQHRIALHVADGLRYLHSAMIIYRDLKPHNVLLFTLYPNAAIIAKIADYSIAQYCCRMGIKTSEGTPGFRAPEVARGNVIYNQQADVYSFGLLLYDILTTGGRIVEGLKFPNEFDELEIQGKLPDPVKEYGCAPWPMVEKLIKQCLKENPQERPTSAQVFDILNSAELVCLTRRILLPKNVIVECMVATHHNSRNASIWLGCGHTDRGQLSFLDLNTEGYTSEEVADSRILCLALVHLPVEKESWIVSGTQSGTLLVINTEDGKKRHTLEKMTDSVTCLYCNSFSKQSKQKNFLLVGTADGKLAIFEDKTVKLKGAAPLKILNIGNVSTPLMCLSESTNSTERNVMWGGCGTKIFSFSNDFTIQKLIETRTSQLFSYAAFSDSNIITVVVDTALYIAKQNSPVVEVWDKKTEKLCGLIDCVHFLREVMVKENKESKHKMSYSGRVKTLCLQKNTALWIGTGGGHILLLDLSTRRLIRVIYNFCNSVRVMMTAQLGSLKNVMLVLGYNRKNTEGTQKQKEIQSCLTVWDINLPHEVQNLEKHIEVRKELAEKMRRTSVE

[5] = biological target: Serine/threonine-protein kinase mTOR (Homo sapiens) (UniProt P42345); experiment: Inhibition of mTOR assessed as residual activity of enzyme at 25 uM
[6] = biological target: Glycogen synthase kinase-3 beta (Homo sapiens) (UniProt P49841); experiment: Inhibition of GSK3-beta assessed as residual activity of enzyme at 10 uM
Sequence of Glycogen synthase kinase-3 beta (Homo sapiens) (P49841 whole entry, looked up): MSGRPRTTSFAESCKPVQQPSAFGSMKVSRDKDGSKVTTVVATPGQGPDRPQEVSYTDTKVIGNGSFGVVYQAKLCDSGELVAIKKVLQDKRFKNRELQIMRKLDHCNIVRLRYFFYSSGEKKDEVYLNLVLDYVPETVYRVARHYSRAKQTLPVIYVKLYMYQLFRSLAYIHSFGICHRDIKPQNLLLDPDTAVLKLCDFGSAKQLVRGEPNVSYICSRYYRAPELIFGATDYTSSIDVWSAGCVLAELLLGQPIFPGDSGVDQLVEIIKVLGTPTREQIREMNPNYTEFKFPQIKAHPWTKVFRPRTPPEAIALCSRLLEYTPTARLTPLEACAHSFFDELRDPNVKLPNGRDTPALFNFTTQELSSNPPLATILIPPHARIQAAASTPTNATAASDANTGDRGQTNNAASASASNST

[7] = biological target: Ribosomal protein S6 kinase beta-1 (Homo sapiens) (UniProt P23443); experiment: Inhibition of p70S6K assessed as residual activity of enzyme at 25 uM
[8] = tested on: Leucine-rich repeat serine/threonine-protein kinase 2 (Homo sapiens), Q5S007 [G2019S]; experiment: Inhibition of purified N-terminal GST-tagged LRRK2 G2019S mutant autophosphorylation activity using myelin basic protein as substrate at 25 uM
[9] = biological target: Cyclin-dependent kinase 5/CDK5 activator 1 (Homo sapiens) (UniProt Q00535+Q15078); experiment: Inhibition of CDK5/p25 assessed as residual activity of enzyme at 10 uM; type: protein-complex assay
Sequence of Cyclin-dependent kinase 5/CDK5 activator 1 (Homo sapiens) (Q00535 whole entry): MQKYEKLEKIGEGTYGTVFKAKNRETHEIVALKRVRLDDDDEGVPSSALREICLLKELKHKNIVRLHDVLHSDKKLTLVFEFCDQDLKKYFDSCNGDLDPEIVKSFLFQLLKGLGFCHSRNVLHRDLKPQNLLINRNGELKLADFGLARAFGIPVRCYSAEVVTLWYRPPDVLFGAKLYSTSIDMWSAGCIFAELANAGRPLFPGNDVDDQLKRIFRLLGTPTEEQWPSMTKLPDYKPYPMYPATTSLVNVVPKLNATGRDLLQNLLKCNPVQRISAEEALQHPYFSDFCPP
Sequence of Cyclin-dependent kinase 5/CDK5 activator 1 (Homo sapiens) (Q15078 99-307 partner limits assumed): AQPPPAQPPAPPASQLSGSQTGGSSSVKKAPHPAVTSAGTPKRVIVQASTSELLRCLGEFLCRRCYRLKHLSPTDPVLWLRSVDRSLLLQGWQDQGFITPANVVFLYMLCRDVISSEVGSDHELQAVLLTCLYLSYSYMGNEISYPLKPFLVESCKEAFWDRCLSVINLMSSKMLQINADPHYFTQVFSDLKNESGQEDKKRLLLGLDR

[10] = biological target: T1, Mitogen-activated protein kinase kinase kinase 7 (Homo sapiens) (UniProt O43318); experiment: Inhibition of TAK1 assessed as residual activity of enzyme at 10 uM
T1 sequence (whole entry): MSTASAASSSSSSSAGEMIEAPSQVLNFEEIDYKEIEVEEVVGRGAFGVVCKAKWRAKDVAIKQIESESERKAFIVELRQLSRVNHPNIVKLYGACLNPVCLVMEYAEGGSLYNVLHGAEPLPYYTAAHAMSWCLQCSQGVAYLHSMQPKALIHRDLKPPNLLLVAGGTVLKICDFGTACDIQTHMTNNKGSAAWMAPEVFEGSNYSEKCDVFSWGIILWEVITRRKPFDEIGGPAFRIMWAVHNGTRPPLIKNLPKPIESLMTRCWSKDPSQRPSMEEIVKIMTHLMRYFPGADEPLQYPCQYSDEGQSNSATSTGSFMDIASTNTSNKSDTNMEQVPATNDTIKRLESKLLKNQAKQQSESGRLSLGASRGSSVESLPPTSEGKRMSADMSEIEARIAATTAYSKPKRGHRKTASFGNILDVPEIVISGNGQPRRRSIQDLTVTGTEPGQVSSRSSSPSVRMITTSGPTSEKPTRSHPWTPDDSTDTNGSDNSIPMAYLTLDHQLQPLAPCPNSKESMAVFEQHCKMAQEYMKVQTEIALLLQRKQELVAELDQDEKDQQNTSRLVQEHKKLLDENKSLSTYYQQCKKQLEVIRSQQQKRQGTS

[11] = tested on: Leucine-rich repeat serine/threonine-protein kinase 2 (Homo sapiens), Q5S007 [G2019S]; experiment: Inhibition of LRRK2 G2019S mutant expressed in mouse SN4741 cells assessed as reduction in hydrogen peroxide-induced neurotoxicity at 10 uM by measuring cell survival after 48 hrs by crystal violet assay relative to control; type: cell-based
[12] = biological target: Mitogen-activated protein kinase kinase kinase 9 (Homo sapiens) (UniProt P80192); experiment: Inhibition of MLK1 assessed as residual activity of enzyme at 25 uM
[13] = tested on: Leucine-rich repeat serine/threonine-protein kinase 2 (Homo sapiens), Q5S007 [G2019S]; experiment: Inhibition of purified N-terminal GST-tagged LRRK2 G2019S mutant assessed as residual activity of enzyme at 10 uM
[14] = biological target: T2, Serine/threonine-protein kinase TAO3 (Homo sapiens) (UniProt Q9H2K8); experiment: Inhibition of TAO3 assessed as residual activity of enzyme at 25 uM
T2 sequence (whole entry): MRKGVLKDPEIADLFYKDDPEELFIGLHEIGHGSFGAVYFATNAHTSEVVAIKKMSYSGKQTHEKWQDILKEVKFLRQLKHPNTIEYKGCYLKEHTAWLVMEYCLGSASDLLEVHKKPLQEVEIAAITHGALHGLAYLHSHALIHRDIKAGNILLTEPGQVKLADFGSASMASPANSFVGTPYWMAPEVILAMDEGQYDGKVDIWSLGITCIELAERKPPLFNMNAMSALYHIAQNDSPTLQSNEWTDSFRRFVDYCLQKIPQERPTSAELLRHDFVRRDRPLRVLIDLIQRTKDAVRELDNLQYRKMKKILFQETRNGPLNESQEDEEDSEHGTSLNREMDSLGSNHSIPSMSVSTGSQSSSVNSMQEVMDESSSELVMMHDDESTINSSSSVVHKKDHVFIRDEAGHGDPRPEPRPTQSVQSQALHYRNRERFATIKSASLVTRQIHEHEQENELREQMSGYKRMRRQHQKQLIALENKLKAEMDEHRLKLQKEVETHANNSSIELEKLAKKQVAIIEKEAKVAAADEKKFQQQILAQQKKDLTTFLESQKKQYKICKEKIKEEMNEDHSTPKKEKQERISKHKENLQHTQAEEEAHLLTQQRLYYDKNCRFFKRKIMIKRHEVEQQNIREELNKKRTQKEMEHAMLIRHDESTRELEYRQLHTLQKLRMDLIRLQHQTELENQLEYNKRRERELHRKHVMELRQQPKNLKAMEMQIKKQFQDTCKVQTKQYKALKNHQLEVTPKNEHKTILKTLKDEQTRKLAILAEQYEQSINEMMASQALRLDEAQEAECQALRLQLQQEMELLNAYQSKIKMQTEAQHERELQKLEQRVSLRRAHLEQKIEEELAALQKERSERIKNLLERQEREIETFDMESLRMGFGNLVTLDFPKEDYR

[15] = biological target: Leucine-rich repeat serine/threonine-protein kinase 2 (Homo sapiens, UniProt Q5S007, G2019S); experiment: Inhibition of purified N-terminal GST-tagged LRRK2 G2019S mutant autophosphorylation activity using myelin basic protein as substrate
[16] = biological target: Leucine-rich repeat serine/threonine-protein kinase 2 (Homo sapiens) (UniProt Q5S007); experiment: Inhibition of wild type LRRK2 expressed in mouse SN4741 cells assessed as reduction in hydrogen peroxide-induced neurotoxicity at 10 uM by measuring cell survival after 48 hrs by crystal violet assay relative to control; type: cell-based

Activity [1]: 86%
Activity [2]: 67%
Activity [3]: 59%
Activity [4]: 11%
Activity [5]: 99%
Activity [6]: 99%
Activity [7]: 50%
inhibition [8]: Active
Activity [9]: 97%
Activity [10]: 68%
Activity [12]: 12%
Activity [13]: 28%
Activity [14]: 81%
pIC50 [15]: 5.39
Compound: Cc1cc(N/N=C/c2ccncc2)nc2ccccc12
Activity [11]: 50%
Activity [16]: 50%
